Where two headings read alike, the source gives them in different places. One block for each compound: values may come before it.
Key:
[1] = UV-vis spectra of species interconversion in phosphate buffer pH 7.0; type: physicochemical; details: 24 h in phosphate buffer pH 7.0, relative to value after 2 min incubation
Method: The stock solutions of the flavylium compounds were prepared in dimethyl sulfoxide (DMSO): H2O (99:1) containing 0.1M of HCl. To estimate the predominant species of the used compounds (Figure 1), 10 µL of stock solution of each compound was added to potassium phosphate buffer at pH 7.0. The UV-vis spectra were recorded immediately (Figure S1, black lines) and after 2 min (red lines). […] The spectral signatures, i.e., the observation of absorption bands in the visible and UV-vis regions, pointed out the existence of the quinoidal base and colorless hemiketal/chalcone species mixtures under non-equilibrated conditions.
Stock solutions of compounds at acid pH values (non-equilibrated (NE) in the media) and by incubation in phosphate buffer at pH 7.0 for 24 h were prepared, and their UV-vis was measured in phosphate buffer pH 7.0. As expected, the mole fraction of the quinoidal base of compounds 1 and 5 partially disappeared, leading to the formation of the respective trans-chalcone species after a 24 h incubation in phosphate buffer at pH 7.0 (Supplementary Figure S2). We monitored the spectra of compounds 1 and 5 (black and grey line, respectively) after immediate addition into phosphate buffer pH 7.0 (continuous line) or after incubation in this buffer for 24 h (dotted line). […]

[2] = biological target: T1, Cb5R in rat liver microsomes (Rattus norvegicus, UniProt P20070); experiment: NADH: ferricyanide reductase activity in rat liver microsomes; type: biochemical; details: for inhibition at 40 µM: 40 µM compound; for IC50: microsomes 5.6 µg/mL of protein; for Maximum inhibition of NADH: ferricyanide reductase activity in microsomes, E form / Maximum inhibition of NADH: ferricyanide reductase activity in microsomes, NE form: up to 100 µM compound
T1 construct: testing the action of compounds 1 and 5 against the Cb5R present in rat liver microsomes; from tissue; host or cells: rat liver microsomes
T1 sequence (P20070 1-301): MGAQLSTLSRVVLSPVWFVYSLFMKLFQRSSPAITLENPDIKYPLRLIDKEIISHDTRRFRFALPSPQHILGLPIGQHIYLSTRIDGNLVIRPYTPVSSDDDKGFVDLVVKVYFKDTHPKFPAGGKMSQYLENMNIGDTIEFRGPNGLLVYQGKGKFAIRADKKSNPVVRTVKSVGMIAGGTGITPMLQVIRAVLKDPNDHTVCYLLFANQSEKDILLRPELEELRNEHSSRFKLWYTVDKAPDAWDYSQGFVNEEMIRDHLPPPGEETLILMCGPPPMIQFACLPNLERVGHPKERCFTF
Method: To further assess the biological relevance of the tested compounds as inhibitors of the Cb5R, we measure the inhibition dependence of the NADH: ferricyanide reductase activity in rat liver microsomes (Figure 6a). All tested compounds follow a dose-dependent effect on this activity, although the maximum inhibition achieved for them was not the same as measured with the purified recombinant enzyme.
(§1) Livers were obtained from add livitum rats. Microsomes were prepared as previously performed, with slight differences. […] Buffer (3 mL) was used per gram of liver tissue. After homogenization, the lysate was centrifuged at 960× g for 10 min at 4 °C. The supernatant was collected and centrifuged at 9800× g for 20 min at 4 °C. Finally, the supernatant was centrifuged at 53170× g for 60 min at 4 °C. The microsomal sediment was resuspended in the same buffer and frizzed at −80 °C until use.

Cb5R from microsomes = biological target: T2, Cb5R from microsomes (Rattus norvegicus, UniProt P20070); experiment: NADH-dependent superoxide anion production (NADH: NBT reductase activity sensitive to SOD and CAT) of microsomes; type: biochemical; details: microsomes 5.2 µg/mL, without compound 2.3 ± 0.1; for Superoxide anion production of microsomes in presence of compound, NE form: non-equilibrated
T2 construct: testing the action of compounds 1 and 5 against the Cb5R present in rat liver microsomes; from tissue; host or cells: rat liver microsomes
T2 sequence (P20070 1-301): T1 sequence (P20070 1-301)
Method: Finally, we measured the effect of compounds 1 and 5 on the previously described NADH-dependent superoxide anion production of the Cb5R by quantifying the inhibitory effect of the compounds on the NADH: nitro blue tetrazolium (NBT) reductase activity of Cb5R from microsomes sensitive to superoxide dismutase (SOD) and catalase (CAT) (Figure 6c). The NADH: NBT reductase activity of Cb5R measured with microsomes (5.2 µg/mL) was 4.4 ± 0.1 µM/min.

[3] = biological target: T1, Cb5R in rat liver microsomes; experiment: NADH: Cb5 reductase activity of rat liver microsomes; type: biochemical; details: 40 µM compound, Cb5 5 μM, NADH 150 μM
Method: We measured the inhibition of the NADH: Cb5 reductase activity with a fixed concentration of the compounds (Figure 6b) and compared the values with those of the NADH: ferricyanide reductase activity in microsomes (Figure 6a).
as §1

[4] = tested on: NADH: ferricytochrome b5 reductase; design: method as in PMID 22542668; details: cited from earlier work; for IC50: read-out: IC50 against NADH: ferricytochrome b5 reductase
[5] = equilibrated, read-out: Inhibition of NADH: ferricyanide reductase activity of microsomes, E form
[6] = non-equilibrated, read-out: Inhibition of NADH: ferricyanide reductase activity of microsomes, NE form
[7] = equilibrated, read-out: IC50, NADH: ferricyanide reductase activity of microsomes, E form
[8] = equilibrated, read-out: Inhibition of NADH: Cb5 reductase activity of microsomes, E form
[9] = non-equilibrated, read-out: Inhibition of NADH: Cb5 reductase activity of microsomes, NE form

Quinoidal base disappeared, forming the trans-chalcone [1]: ca. 40%
inhibition at 40 µM [2, 5]: 63.4 ± 3.6%
inhibition at 40 µM [2, 6]: 4.6 ± 4%
IC50 [2, 7]: 18 ± 3.8 µM
Maximum inhibition of NADH: ferricyanide reductase activity in microsomes, E form ([2]; equilibrated): 85 ±2%
Maximum inhibition of NADH: ferricyanide reductase activity in microsomes, NE form ([2]; non-equilibrated): 11 ±7%
Superoxide anion production of microsomes in presence of compound, E form (Cb5R from microsomes; equilibrated): 1.4 ± 0.1 µM/min
Superoxide anion production of microsomes in presence of compound, NE form (Cb5R from microsomes): 1.7 ± 0.1 µM/min
inhibition at 40 µM [3, 8]: 58.8 ± 1.5%
inhibition at 40 µM [3, 9]: 25 ± 5.3%
SMILES: Oc1ccc(-c2ccc3ccc(O)cc3[o+]2)cc1 [Compound 1]

Quinoidal base disappeared, forming the trans-chalcone [1]: ca. 40%
inhibition at 40 µM [2, 5]: 81.8 ± 2.3%
inhibition at 40 µM [2, 6]: 71 ± 4.7%
IC50 [2, 7]: 3.3 ± 0.4 µM
IC50 ([2]; non-equilibrated, read-out: IC50, NADH: ferricyanide reductase activity of microsomes, NE form): 8 ± 2.2 µM
Maximum inhibition of NADH: ferricyanide reductase activity in microsomes, E form ([2]; equilibrated): 81 ± 2%
Maximum inhibition of NADH: ferricyanide reductase activity in microsomes, NE form ([2]; non-equilibrated): 77 ± 2%
Superoxide anion production of microsomes in presence of compound, NE form (Cb5R from microsomes): 1.4 ± 0.1 µM/min
inhibition at 40 µM [3, 8]: 80.6 ± 0.8%
inhibition at 40 µM [3, 9]: 65.6 ± 2.9%
SMILES: Oc1ccc2ccc(-c3ccc(O)c(O)c3)[o+]c2c1 [Compound 5]

SMILES: O=C1C[C@@H](c2ccc(O)cc2)Oc2cc(O)cc(O)c21 [Naringenin]
Inhibition of Cb5R in vitro ([4]; in vitro studies): did not inhibit

SMILES: O=c1cc(-c2ccc(O)cc2)oc2cc(O)cc(O)c12 [apigenin]
IC50 [4]: 36 µM

SMILES: Oc1cc(O)c2c(c1)O[C@H](c1ccc(O)c(O)c1)[C@@H](O)C2 [catechin]
IC50 [4]: 4.5 µM

SMILES: Oc1cc(O)c2c(c1)O[C@H](c1ccc(O)c(O)c1)[C@H](O)C2 [epicatechin]
IC50 [4]: 3.2 µM

SMILES: O=c1cc(-c2ccc(O)c(O)c2)oc2cc(O)cc(O)c12 [luteolin]
IC50 [4]: 0.11 µM

SMILES: O=c1c(O)c(-c2ccc(O)c(O)c2)oc2cc(O)cc(O)c12 [quercetin]
IC50 [4]: 1.1 µM

— article PMC9822168, “The Use of Flavylium Salts as Dynamic Inhibitor Moieties for Human Cb5R” (Molecules, 2022)
